± gives the expanded uncertainty stated by the source.
Test: mn = molality of the nth substance listed, in mol/kg
Conditions: Liquid, Vibrating tube method

[Cl-].[Li+] [lithium chloride] + CCO
Conditions | mass density [kg/m3]
348.15 K, 20090 kPa, m1 = 0.3023 | 772.2 ± 0.49
348.15 K, 20140 kPa, m1 = 1.222 | 800.25 ± 0.47
348.15 K, 20480 kPa, m1 = 0.5873 | 781.78 ± 0.49
348.15 K, 25070 kPa, m1 = 1.222 | 804.33 ± 0.49
348.15 K, 25320 kPa, m1 = 0.5873 | 786.04 ± 0.5
348.15 K, 25420 kPa, m1 = 2.022 | 826.11 ± 0.48
348.15 K, 25640 kPa, m1 = 2.88 | 846.96 ± 0.46
348.15 K, 25840 kPa, m1 = 0.1049 | 770.86 ± 0.52
348.15 K, 25860 kPa, m1 = 0.3023 | 777.45 ± 0.51
348.15 K, 30060 kPa, m1 = 0.3023 | 781.03 ± 0.53
348.15 K, 30160 kPa, m1 = 2.022 | 829.46 ± 0.49
348.15 K, 30410 kPa, m1 = 1.222 | 808.41 ± 0.51
348.15 K, 30610 kPa, m1 = 0.5873 | 790.37 ± 0.53
348.15 K, 30710 kPa, m1 = 0.1049 | 775.12 ± 0.54
348.15 K, 30840 kPa, m1 = 2.88 | 850.58 ± 0.48
348.15 K, 35190 kPa, m1 = 2.88 | 853.39 ± 0.49
348.15 K, 35240 kPa, m1 = 0.1049 | 778.84 ± 0.56
348.15 K, 35420 kPa, m1 = 1.222 | 811.91 ± 0.53
348.15 K, 35610 kPa, m1 = 2.022 | 832.94 ± 0.51
348.15 K, 35840 kPa, m1 = 0.3023 | 785.62 ± 0.56
348.15 K, 35840 kPa, m1 = 0.5873 | 794.33 ± 0.55
348.15 K, 39860 kPa, m1 = 0.5873 | 797.14 ± 0.57
348.15 K, 39860 kPa, m1 = 2.88 | 856.19 ± 0.5
348.15 K, 39930 kPa, m1 = 0.1049 | 782.45 ± 0.59
348.15 K, 39940 kPa, m1 = 0.3023 | 788.64 ± 0.58
348.15 K, 39960 kPa, m1 = 2.022 | 835.44 ± 0.52
348.15 K, 39970 kPa, m1 = 1.222 | 814.81 ± 0.54
373.15 K, 290 kPa, m1 = 0.1049 | 717.74 ± 0.43
373.15 K, 310 kPa, m1 = 0.3023 | 725.29 ± 0.43
373.15 K, 320 kPa, m1 = 2.022 | 781.71 ± 0.42
373.15 K, 840 kPa, m1 = 1.222 | 757.56 ± 0.42
373.15 K, 960 kPa, m1 = 0.5873 | 736.55 ± 0.43
373.15 K, 980 kPa, m1 = 2.88 | 805.91 ± 0.42
373.15 K, 5060 kPa, m1 = 0.3023 | 731.82 ± 0.44
373.15 K, 5060 kPa, m1 = 1.222 | 762.98 ± 0.43
373.15 K, 5140 kPa, m1 = 0.1049 | 724.52 ± 0.44
373.15 K, 5140 kPa, m1 = 2.88 | 810.39 ± 0.43
373.15 K, 5420 kPa, m1 = 0.5873 | 742.51 ± 0.44
373.15 K, 5860 kPa, m1 = 2.022 | 788.43 ± 0.43
373.15 K, 9980 kPa, m1 = 2.88 | 815.52 ± 0.44
373.15 K, 10060 kPa, m1 = 1.222 | 769.02 ± 0.45
373.15 K, 10070 kPa, m1 = 0.3023 | 738.32 ± 0.46
373.15 K, 10080 kPa, m1 = 0.1049 | 731.05 ± 0.46
373.15 K, 10090 kPa, m1 = 0.5873 | 748.41 ± 0.46
373.15 K, 10090 kPa, m1 = 2.022 | 793.18 ± 0.44
373.15 K, 14620 kPa, m1 = 2.88 | 819.69 ± 0.45
373.15 K, 15020 kPa, m1 = 0.3023 | 744.36 ± 0.48
373.15 K, 15420 kPa, m1 = 0.1049 | 737.69 ± 0.49
373.15 K, 15720 kPa, m1 = 2.022 | 799 ± 0.46
373.15 K, 15740 kPa, m1 = 1.222 | 775.35 ± 0.47
373.15 K, 15850 kPa, m1 = 0.5873 | 755.19 ± 0.48
373.15 K, 20080 kPa, m1 = 0.1049 | 743.13 ± 0.51
373.15 K, 20090 kPa, m1 = 0.5873 | 759.84 ± 0.5
373.15 K, 20310 kPa, m1 = 0.3023 | 750.38 ± 0.51
373.15 K, 20310 kPa, m1 = 2.022 | 803.31 ± 0.47
373.15 K, 20340 kPa, m1 = 1.222 | 780.06 ± 0.49
373.15 K, 21420 kPa, m1 = 2.88 | 825.53 ± 0.46
373.15 K, 24940 kPa, m1 = 2.88 | 828.37 ± 0.47
373.15 K, 25050 kPa, m1 = 2.022 | 807.37 ± 0.49
373.15 K, 25080 kPa, m1 = 1.222 | 784.55 ± 0.5
373.15 K, 25410 kPa, m1 = 0.1049 | 748.94 ± 0.54
373.15 K, 25410 kPa, m1 = 0.3023 | 755.77 ± 0.53
373.15 K, 25840 kPa, m1 = 0.5873 | 765.68 ± 0.52
373.15 K, 30060 kPa, m1 = 0.3023 | 760.33 ± 0.55
373.15 K, 30060 kPa, m1 = 2.022 | 811.2 ± 0.51
373.15 K, 30150 kPa, m1 = 0.5873 | 769.7 ± 0.54
373.15 K, 30150 kPa, m1 = 2.88 | 832.41 ± 0.49
373.15 K, 30260 kPa, m1 = 0.1049 | 753.85 ± 0.56
373.15 K, 30410 kPa, m1 = 1.222 | 789.12 ± 0.53
373.15 K, 35160 kPa, m1 = 0.3023 | 764.94 ± 0.58
373.15 K, 35410 kPa, m1 = 2.022 | 814.8 ± 0.52
373.15 K, 35740 kPa, m1 = 2.88 | 836.3 ± 0.51
373.15 K, 35840 kPa, m1 = 0.1049 | 759.05 ± 0.59
373.15 K, 35840 kPa, m1 = 1.222 | 793.28 ± 0.55
373.15 K, 35980 kPa, m1 = 0.5873 | 774.65 ± 0.57
373.15 K, 39820 kPa, m1 = 1.222 | 796.01 ± 0.57
373.15 K, 39910 kPa, m1 = 0.1049 | 762.54 ± 0.61
373.15 K, 39960 kPa, m1 = 0.3023 | 768.9 ± 0.6
373.15 K, 39970 kPa, m1 = 0.5873 | 777.73 ± 0.59
373.15 K, 39970 kPa, m1 = 2.022 | 817.45 ± 0.54
373.15 K, 39980 kPa, m1 = 2.88 | 839.22 ± 0.52
398.15 K, 680 kPa, m1 = 0.3023 | 696.61 ± 0.43
398.15 K, 740 kPa, m1 = 0.1049 | 688.68 ± 0.44
398.15 K, 740 kPa, m1 = 2.022 | 758.72 ± 0.42
398.15 K, 960 kPa, m1 = 1.222 | 731.58 ± 0.43
398.15 K, 1010 kPa, m1 = 2.88 | 785.44 ± 0.42
398.15 K, 1020 kPa, m1 = 0.5873 | 708.33 ± 0.43
398.15 K, 4860 kPa, m1 = 1.222 | 737.73 ± 0.44
398.15 K, 5010 kPa, m1 = 0.1049 | 695.99 ± 0.45
398.15 K, 5030 kPa, m1 = 2.022 | 765.06 ± 0.43
398.15 K, 5070 kPa, m1 = 0.3023 | 704.02 ± 0.45
398.15 K, 5070 kPa, m1 = 2.88 | 790.37 ± 0.43
398.15 K, 5740 kPa, m1 = 0.5873 | 716.08 ± 0.45
398.15 K, 9680 kPa, m1 = 1.222 | 744.82 ± 0.46
398.15 K, 10060 kPa, m1 = 0.3023 | 711.93 ± 0.47
398.15 K, 10060 kPa, m1 = 0.5873 | 722.74 ± 0.47
398.15 K, 10140 kPa, m1 = 2.88 | 796.07 ± 0.44
398.15 K, 10420 kPa, m1 = 2.022 | 772.34 ± 0.45
398.15 K, 10450 kPa, m1 = 0.1049 | 704.75 ± 0.48
398.15 K, 15060 kPa, m1 = 1.222 | 752.07 ± 0.48
398.15 K, 15060 kPa, m1 = 2.022 | 778 ± 0.47
398.15 K, 15090 kPa, m1 = 0.3023 | 719.36 ± 0.5
398.15 K, 15280 kPa, m1 = 2.88 | 801.31 ± 0.46
398.15 K, 15420 kPa, m1 = 0.1049 | 712.2 ± 0.5
398.15 K, 15960 kPa, m1 = 0.5873 | 731.15 ± 0.49
398.15 K, 20010 kPa, m1 = 2.88 | 805.83 ± 0.47
398.15 K, 20090 kPa, m1 = 0.1049 | 718.73 ± 0.53
398.15 K, 20140 kPa, m1 = 0.3023 | 726.27 ± 0.52
398.15 K, 20350 kPa, m1 = 0.5873 | 736.9 ± 0.52
398.15 K, 20470 kPa, m1 = 1.222 | 758.65 ± 0.5
398.15 K, 20740 kPa, m1 = 2.022 | 784.18 ± 0.49
398.15 K, 25230 kPa, m1 = 0.3023 | 732.68 ± 0.55
398.15 K, 25320 kPa, m1 = 2.88 | 810.7 ± 0.49
398.15 K, 25420 kPa, m1 = 0.5873 | 742.99 ± 0.54
398.15 K, 25610 kPa, m1 = 2.022 | 788.8 ± 0.51
398.15 K, 25620 kPa, m1 = 1.222 | 764.26 ± 0.53
398.15 K, 25840 kPa, m1 = 0.1049 | 726.13 ± 0.56
398.15 K, 30050 kPa, m1 = 0.5873 | 748.05 ± 0.57
398.15 K, 30070 kPa, m1 = 0.3023 | 738.24 ± 0.58
398.15 K, 30070 kPa, m1 = 2.88 | 814.57 ± 0.5
398.15 K, 30090 kPa, m1 = 2.022 | 792.51 ± 0.52
398.15 K, 30150 kPa, m1 = 0.1049 | 731.22 ± 0.59
398.15 K, 30410 kPa, m1 = 1.222 | 768.9 ± 0.55
398.15 K, 34950 kPa, m1 = 0.5873 | 752.88 ± 0.59
398.15 K, 34980 kPa, m1 = 2.88 | 818 ± 0.52
398.15 K, 35240 kPa, m1 = 0.3023 | 743.62 ± 0.61
398.15 K, 35810 kPa, m1 = 2.022 | 796.49 ± 0.55
398.15 K, 35860 kPa, m1 = 0.1049 | 737.37 ± 0.62
398.15 K, 35950 kPa, m1 = 1.222 | 773.57 ± 0.57
398.15 K, 39860 kPa, m1 = 0.1049 | 741.26 ± 0.65
398.15 K, 39920 kPa, m1 = 0.5873 | 757.22 ± 0.62
398.15 K, 39940 kPa, m1 = 1.222 | 776.48 ± 0.59
398.15 K, 39940 kPa, m1 = 2.022 | 798.83 ± 0.56
398.15 K, 39970 kPa, m1 = 0.3023 | 748.04 ± 0.64
398.15 K, 39980 kPa, m1 = 2.88 | 821.9 ± 0.54

Reference: the NIST ThermoML archive (doi:10.1021/je700438d)
